The values below come from patent publication US20080038228A1, “Method” (Danisco A/S, priority 2003, published 2008).

Data set [1] has as its system Cox-2 expression. The conditions noted are these: according to prior art; cited from earlier work.
In data set [2] the test system is Cox-1/Cox-2 expression pattern in Caco-2 cells. As to the kind of experiment: Cox-1/Cox-2 ratio and expression pattern in Caco-2 cells. In kind it is cell-based, human. The settings on record: Experiment 1, Caco-2 cells, 24 hour exposure. The method, then:
To determine the effects of various treatments on the Cox-1/Cox-2 expression pattern, approximately 500 000 Caco-2 cells/well were seeded on 24-well cell culture plates. The cells were allowed to attach for 24 hours, after which the media were replaced by fresh media (total volume 1 ml/well) containing either no other added components than the ones described above (control treatments, with and without antibiotics) or antibiotic supplemented media with 5 mM sodium butyrate; 5 mM sodium propionate; 5 mM sodium acetate or 5 mM sodium lactate. […]
(§1) After 24 hour exposure, media and culture inserts were discarded, cells were lysed and RNA was extracted using Qiagen's (Germany) RNEasy Mini Kit DNA was digested using the same manufacturer's RNase free DNase. […] Cox-1/Cox-2 expression patterns were determined by real-time quantitative TaqMan PCR (Holland et al., 1991 Proc. Natl. Acad. Sci. USA August 15; 88(16): 7276-80; and Livak and Scmittgen, 2001 Methods December; 25(4):402-8) using the default settings of an ABIPrism 7000 Sequence Detection instrument (Applied Biosystems).
Two bifidobacteria (Bifidobacterium sp. 420 and Bifidobacterium longum 913) were cultured as described in Experiment 1. […] Bacterial growth was stopped by chilling confluent cultures on ice, after which cell densities were determined by flow cytometry (FACS Calibur, Becton Dickinson). […]

For data set [3], the system named is cyclooxygenase 2 gene expression in Caco2 cells. As to the kind of experiment: Caco-2 cell-based exposure test, Cox-2 gene expression (Experiment 1: selected metabolites and co-cultured bacterium). The conditions noted are these: 24 hour treatment, metabolites 5 mM, bacterium co-cultured in membrane insert. Details: species or system human. On the procedure: (§2) The human colorectal carcinoma cell line Caco-2 was grown at 37° C. and 5% CO2 in serum-free Dulbeccos' MEM (Gibco) supplemented with 1 mM sodium pyruvate (Gibco) and 1× non-essential amino acids (Gibco) (DMEM). When grown without added bacteria, 20 Uml^−1 penicillin (Gibco), 20 μgml^−1 streptomycin (Gibco) and 0.5 μgml^−1 amphotericin (Gibco) were added to the medium. Bifidobacterium sp. 420 was grown anaerobically for 48 hours at 37° C. in a BIF medium consisting of 10 gl^−1 tryptic digest of casein peptone; 5 gl^−1 meat extract; 5 gl^−1 yeast extract; 10 gl^−1 glucose; 3 gl^−1 K2HPO4; 0.1% (volume/volume) Tween 80; 1% ascorbic acid and 0.05% cysteine-HCl; pH 6.8. 2 ml of logarithmic phase culture was centrifuged at 4000 rpm for 3 minutes. The cell pellet was suspended in 1.6 ml DMEM. The production of short chain organic acids by the bacterium was tested from fresh and conditioned bifidobacterium medium using gas chromatography.
To determine the effects of various treatments on the Cox-1/Cox-2 expression pattern, approximately 500 000 Caco-2 cells/well were seeded on 24-well cell culture plates. The cells were allowed to attach for 24 hours, after which the media were replaced by fresh media (total volume 1 ml/well) containing either no other added components than the ones described above (control treatments, with and without antibiotics) or antibiotic supplemented media with 5 mM sodium butyrate; 5 mM sodium propionate; 5 mM sodium acetate or 5 mM sodium lactate. In addition, wells were prepared that contained no antibiotics but a 0.2 μm anopore membrane tissue culture insert (Nunc, Denmark) into which 100 μl of the bacterial suspension described above was added.
After 24 hour exposure, media and culture inserts were discarded, cells were lysed and RNA was extracted using Qiagen's (Germany) RNEasy Mini Kit DNA was digested using the same manufacturer's RNase free DNase. Reverse transcription was performed using the High Capacity cDNA Archive Kit (Applied Biosystems, USA) according to the instructions provided by the manufacturer. Cox-1/Cox-2 expression patterns were determined by real-time quantitative TaqMan PCR (Holland et al., 1991 Proc. Natl. Acad. Sci. USA August 15; 88(16): 7276-80; and Livak and Scmittgen, 2001 Methods December; 25(4):402-8) using the default settings of an ABIPrism 7000 Sequence Detection instrument (Applied Biosystems).

Data set [4] concerns indomethacin-induced gastrointestinal damage. As to the kind of experiment: Rat model of indomethacin-induced gastrointestinal damage, damage area (Experiment 3). The data set is classed as in vivo. The settings on record: male Wistar rats. The text has this:
(§3) A previously described rat model was used to study indomethacin-induced gastrointestinal damage (see Meddings and Gibbons, Gastroenterology 1998; 114:83-92). Briefly, male Wistar rats were used and ten rats were included in each treatment group. Five different treatments were included: control group with no indomethacin treatment, indomethacin control group with no intervention treatment, indomethacin with 10^8 Bifidobacterium per rat, indomethacin with 10^10 Bifidobacterium per rat, and indomethacin with betaine (200 mg/rat). A single dose of indomethacin (10 mg/kg) was given p.o. preceded by a seven-day intervention with or without Bifidobacterium or betaine. In addition, a mixture of sucrose, lactulose, mannitol and sucralose was given p.o to measure gastrointestinal (GI) permeability. Urine samples were obtained at 16 hours after the challenge with indomethacin and prior to sacrificing the animals. Mucosa of the stomach and the intestine were examined by a pathologist and tissue samples of healthy-appearing mucosa for RNA isolation were collected from stomach, proximal and distal small intestine, caecum and proximal and distal colon. RNA was isolated and expression of cyclooxygenase-1 and -2 (COX-1 and COX-2, respectively) were determined by QPCR.

Data set [5] deals with gastrointestinal (GI) permeability. As to the kind of experiment: Gastrointestinal permeability, urine concentrations of marker sugars in indomethacin-challenged rats (Experiment 3). In kind it is in vivo, rat. The conditions noted are these: male Wistar rats, single dose 10 mg/kg p.o., urine at 16 hours.
From the text: as §3

Data set [6] has as its system cyclooxygenase 1 gene expression in Caco2 cells. As to the kind of experiment: Caco-2 cell-based exposure test, Cox-1 gene expression (Experiment 1: selected metabolites and co-cultured bacterium). The conditions noted are these: 24 hour treatment, metabolites 5 mM, bacterium co-cultured in membrane insert. Details: species or system human. On the procedure: as §2, with “The production of short chain organic acids by the bacterium was tested from fresh and conditioned bifidobacterium medium using gas chromatography.” left out
as §1

In data set [7] the test system is indomethacin-induced gastrointestinal damage. As to the kind of experiment: Combined live Bifidobacterium and betaine in indomethacin-challenged rats, damage area (Experiment 4). In kind it is in vivo, rat. The settings on record: Experiment 4, indomethacin-challenged male Wistar rats; Bifidobacterium 10^10 and betaine 200 mg daily per animal; preliminary investigations. The method, then: Male Wistar rats as described previously in Experiment 3 above are split into the following treatment groups: a control, an indomethacin challenge group as a control, and treatment groups 3-5, which receive intervention treatment by live Bifidobacterium (10^10 daily dose per animal) and betaine (200 mg of daily dose per animal) either separately or in combination. Damage is determined from the sacrificed rats only.

“Also recorded” adds a separate entry of the source.

Take `CCCC(=O)[O-].[Na+]` [butyrate, sodium butyrate]: in data set [1], the “effect on Cox-2 expression” value is “lowering effect”. Besides, the “Cox-1/Cox-2 ratio / expression pattern (FIG. 1)” value in data set [2] is given as “increase”. Further, in data set [3], the “Cox-2 gene expression level, fold change in relation to the control” value (shortened to “Cox-2 gene expression level, fold change”) was found to be 0.15 fold change.

For `COc1ccc2c(c1)c(CC(=O)O)c(C)n2C(=O)c1ccc(Cl)cc1` [Indomethacin, indomethacin], the “gross pathological changes (ulceration)” value in data set [4] (single dose 10 mg/kg p.o.) was “induced ulceration mainly to fundic stomach, but also to pyloric stomach”. Further, the “urine concentrations of marker sugars after the challenge” value in data set [5] is on record as “significant increase”.

Regarding `CC(O)C(=O)[O-].[Na+]` (centres unmarked) [lactate, sodium lactate], in data set [6], the “Cox-1 gene expression level, fold change in relation to the control” value is 0.91 fold change. Besides, the “Cox-2 gene expression level, fold change” value in data set [3] worked out at 0.74 fold change.

Take `C[N+](C)(C)CC(=O)[O-]` [Betaine, trimethylglycine]: the pathological damage area entry in data set [4] (seven-day intervention, then indomethacin 10 mg/kg p.o.) is “tendency to decrease; also recorded: somewhat reduced”. Besides, the “damage area in the gastrointestinal tract” value in data set [7] is on record as “tends to decrease”.

With `CC(=O)[O-].[Na+]` [acetate, sodium acetate], the “Cox-1 gene expression level, fold change in relation to the control” value in data set [6] came out at 2.08 fold change. Moreover, in data set [3], the “Cox-2 gene expression level, fold change” value worked out at 1.17 fold change.

As to `CCC(=O)[O-].[Na+]` [propionate, sodium propionate], the “effect on Cox-2 expression” value in data set [1] was “lowering effect”. In data set [2], the “Cox-1/Cox-2 ratio / expression pattern (FIG. 1)” value is on record as “increase”. In addition, the “Cox-2 gene expression level, fold change” value in data set [3] came out at 0.36 fold change.
